Experimental data taken from patent EP2208725A1, “Novel specific inhibitors of ubiquitin specific protease 7, the pharmaceutical compositions thereof and their therapeutic applications” (Hybrigenics S.A., priority 2009, dated 2010).

These compounds were tested against T1, USP8 (Homo sapiens, UniProt P40818) (assay: USP8 activity assay (Ub-AMC)). Details: 400 nM Ub-AMC, 1.36 nM enzyme; compounds tested from 200 µM to 91 nM; unit inferred; read-out: Inhibition of cysteine protease activities: USP8.
T1 construct: His (from pFastBac-HT vector); made in house; host or cells: Insect cells (Sf9 or High Five), baculovirus
T1 sequence (P40818 1-1118): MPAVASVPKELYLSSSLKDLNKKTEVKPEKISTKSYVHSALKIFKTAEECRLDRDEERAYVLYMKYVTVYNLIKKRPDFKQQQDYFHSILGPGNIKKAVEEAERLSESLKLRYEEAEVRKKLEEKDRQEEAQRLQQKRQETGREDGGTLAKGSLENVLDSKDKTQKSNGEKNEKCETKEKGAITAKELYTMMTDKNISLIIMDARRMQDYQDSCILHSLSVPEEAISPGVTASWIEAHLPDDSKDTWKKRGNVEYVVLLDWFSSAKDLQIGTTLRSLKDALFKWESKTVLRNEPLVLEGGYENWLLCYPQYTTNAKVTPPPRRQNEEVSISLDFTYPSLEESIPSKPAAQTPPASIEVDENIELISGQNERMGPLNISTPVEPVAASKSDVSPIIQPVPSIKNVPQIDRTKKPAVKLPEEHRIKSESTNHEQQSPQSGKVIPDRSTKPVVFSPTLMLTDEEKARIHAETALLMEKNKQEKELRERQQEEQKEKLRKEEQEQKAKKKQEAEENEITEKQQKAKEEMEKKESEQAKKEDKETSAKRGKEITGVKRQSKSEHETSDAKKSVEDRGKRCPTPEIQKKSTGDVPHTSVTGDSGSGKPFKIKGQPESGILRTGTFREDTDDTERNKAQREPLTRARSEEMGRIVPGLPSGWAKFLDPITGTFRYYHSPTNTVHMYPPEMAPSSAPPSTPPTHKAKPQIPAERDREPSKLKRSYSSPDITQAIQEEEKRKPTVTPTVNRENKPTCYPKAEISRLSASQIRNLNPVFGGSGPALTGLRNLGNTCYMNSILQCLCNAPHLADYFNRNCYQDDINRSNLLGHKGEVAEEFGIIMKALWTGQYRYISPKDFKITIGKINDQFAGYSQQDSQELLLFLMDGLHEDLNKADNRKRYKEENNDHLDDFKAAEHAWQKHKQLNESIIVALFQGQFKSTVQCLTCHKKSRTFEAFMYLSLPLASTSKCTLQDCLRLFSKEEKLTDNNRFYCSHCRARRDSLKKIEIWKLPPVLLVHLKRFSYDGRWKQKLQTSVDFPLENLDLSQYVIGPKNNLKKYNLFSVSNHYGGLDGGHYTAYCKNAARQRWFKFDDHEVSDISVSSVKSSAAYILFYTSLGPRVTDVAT
Assay type: biochemical
Source text: The cDNA encoding USP8 was obtained by PCR amplification from placenta mRNA. USP8 cDNA was subcloned by PCR into a baculovirus expression vector (pFastBac-HT; Invitrogen). A cDNA encoding a mutated USP8 was generated by mutagenic PCR. The corresponding protein encodes a cysteine to alanine substitution at residue 786. The sequences were ascertained by sequencing of the entire open reading frame. Bacmids encoding […] were generated following DH10bac transposition. The corresponding bacmids were transfected into insect cells (Sf9). Viruses were recovered from culture supernatant and amplified twice. Insect cells (Sf9 or High Five; Invitrogen) were infected for 72 hours. Total cell lysates were harvested and lyzed in lysis buffer (Tris HCl 50 mM pH7.6; 0.75 % NP40; 500 mM NaCl; 10 % glycerol; 1 mM DTT; 10 mM imidazole; Protease Inhibitor Cocktail; AEBSF 20 µg.ml^-1; Aprotinin 10 µg.ml^-1). Proteins were affinity purified on metal affinity resins (Talon Metal affinity resin; BD Biosciences). Bound materials were extensively washed in wash buffer (50 mM Sodium Phosphate pH 7.0; 300 mM NaCl; 10 mM imidazole; 0.5% Triton X-1 00; 10% glycerol) and eluted from the resin in 250 mM imidazole-containing wash buffer. Proteins were dialyzed in dialysis buffer (Tris HCl pH 7.6 20 mM; NaCl 200 mM; DTT 1 mM; EDTA 1 mM; 10% Glycerol). Proteins purifications were analyzed on 4-12% NuPAGE (Invitrogen).
USP8 was diluted in USP buffer (50 mM Tris HCl; 0.5 mM EDTA; 5 mM DTT; 0.01% Triton X-100; Bovine Serum Albumin 0.05 mg.ml^-1 pH8.8). Compounds stocks (100 mM) were stored at -20°C in DMSO. Compounds were tested at different concentrations: from 200 µM to 91 nM.
Reactions were performed as duplicates in Black LJL 96 well plates (HE microplates; Molecular Devices; 20 µl final reaction volume). The substrate concentration for USP8 was 400 nM Ub-AMC (Boston Biochem). The concentration of the enzyme (USP8) in specificity assays was 1.36 nM. The concentrations were determined in order to perform specificity assays under initial velocities at fixed substrate concentration. Compounds were pre-incubated with enzymes for 30 minutes at 25°C. Reactions were initiated by addition of substrate to the plates containing the enzymes (+/- compounds) diluted in assay buffer. Reactions were incubated for 60 minutes at 37°C. Reactions were stopped by adding acetic acid (100 mM final). Readings were performed on a Pherastar Fluorescent Reader (BMG). λ Emission 380 nm : λ Excitation = 460 nm. Data (mean values +/- standard deviation) were analyzed as % of control (no compound) and plotted as percentage versus the Log of the compound concentration using GraphPad (Prism). Data were fitted to a sigmoidal model (variable slope).

Compound | IC50
CC(=O)C1=C(O)C(=O)N(CCc2ccc(Cl)cc2)C1c1ccc(Br)cc1 (stereo not shown) [Example 25, 4-acetyl-5-(4-bromo-phenyl)-1-[2-(4-chloro-phenyl)-ethyl]-3-hydroxy-1,5-dihydro-pyrrol-2-one] | > 200 µM
CC(=O)C1=C(O)C(=O)N(CCc2ccc(Br)cc2)C1c1ccc(Br)cc1 (stereo not shown) [Example 26, 4-acetyl-5-(4-bromo-phenyl)-1-[2-(4-bromo-phenyl)-ethyl]-3-hydroxy-1,5-dihydro-pyrrol-2-one] | > 200 µM
CC(=O)C1=C(O)C(=O)N(CCc2ccc(Cl)c(Cl)c2)C1c1ccc(Br)cc1 (stereo not shown) [Example 28, 4-acetyl-5-(4-bromo-phenyl)-1-[2-(3,4-dichloro-phenyl)-ethyl]-3-hydroxy-1,5-dihydro-pyrrol-2-one] | > 200 µM
COc1cccc(CCN2C(=O)C(O)=C(C(C)=O)C2c2ccc(Br)cc2)c1 (stereo not shown) [Example 30, 4-acetyl-5-(4-bromo-phenyl)-3-hydroxy-1-[2-(3-methoxyphenyl)-ethyl]-1,5-dihydro-pyrrol-2-one] | > 200 µM
COc1ccc(CCN2C(=O)C(O)=C(C(C)=O)C2c2ccc(Br)cc2)cc1 (stereo not shown) [Example 32, 4-acetyl-5-(4-bromo-phenyl)-3-hydroxy-1-[2-(4-methoxyphenyl)-ethyl]-1,5-dihydro-pyrrol-2-one] | > 200 µM
CC(=O)C1=C(O)C(=O)N(CCc2ccc(F)cc2)C1c1ccc(Br)cc1 (stereo not shown) [Example 33, 4-acetyl-5-(4-bromo-phenyl)-3-hydroxy-1-[2-(4-fluorophenyl)-ethyl]-1,5-dihydro-pyrrol-2-one] | > 200 µM
CCOc1ccc(CCN2C(=O)C(O)=C(C(C)=O)C2c2ccc(Br)cc2)cc1 (stereo not shown) [Example 34, 4-acetyl-5-(4-bromo-phenyl)-3-hydroxy-1-[2-(4-ethoxy-phenyl)-ethyl]-1,5-dihydro-pyrrol-2-one] | > 200 µM
CC(=O)C1=C(O)C(=O)N(CCc2ccccc2)C1c1ccc2c(c1)OCO2 (stereo not shown) [Example 37, 4-acetyl-5-benzo[1,3]dioxol-5-yl-3-hydroxy-1-phenethyl-1,5-dihydro-pyrrol-2-one] | > 200 µM
CC(=O)C1=C(O)C(=O)N(CCc2ccccc2)C1c1ccc(Br)c(Br)c1 (stereo not shown) [Example 41, 4-acetyl-5-(3,4-dibromo-phenyl)-3-hydroxy-1-phenethyl-1,5-dihydro-pyrrol-2-one] | > 200 µM
CC(=O)C1=C(O)C(=O)N(CCc2ccccc2)C1c1cccnc1Cl (stereo not shown) [Example 42, 4-acetyl-5-(2-chloro-pyridin-3-yl)-3-hydroxy-1-phenethyl-1,5-dihydro-pyrrol-2-one] | > 200 µM
CC(=O)C1=C(O)C(=O)N(CCc2ccc(Br)cc2)C1c1ccc(Cl)cc1 (stereo not shown) [Example 45, 4-Acetyl-5-(4-chlorophenyl)-1-[2-(4-bromophenyl)-ethyl]-3-hydroxy-1,5-dihydro-pyrrol-2-one] | > 200 µM
CC(=O)C1=C(O)C(=O)N(CCc2ccc(Cl)cc2)C1c1ccc(Cl)cc1 (stereo not shown) [Example 46, 4-Acetyl-5-(4-chlorophenyl)-1-[2-(4-chlorophenyl)-ethyl]-3-hydroxy-1,5-dihydro-pyrrol-2-one] | > 200 µM
CC(=O)C1=C(O)C(=O)N(CCc2ccc(Cl)cc2Cl)C1c1ccc(Br)cc1 (stereo not shown) [Example 47, 4-Acetyl-5-(4-bromophenyl)-1-[2-(2,4-dichlorophenyl)-ethyl]-3-hydroxy-1,5-dihydro-pyrrol-2-one] | > 200 µM
